Assay results published in the C3SDB collision cross section collection.
Where “and” joins values, the source holds several entries; their conditions need not be identical. Equal values may be shown once.

details: [M+Na]+; instrument: TW; calibrated with phosphatidylcholines (ESI+) and phosphatidylethanolamines (ESI-)

| collision cross section (N2) | SMILES |
| --- | --- |
| 278.2 Å² | CCCCC/C=C\C/C=C\CCCCCCCCCCCC(=O)O[C@H](COC(=O)CCCCCCCCCCC)COP(=O)(O)OC[C@@H](O)CO [PG(34:2)] |

same assay, conditions: [M-H]-; instrument: TW; calibrated with phosphatidylcholines (ESI+) and phosphatidylethanolamines (ESI-)

| collision cross section (N2) | SMILES |
| --- | --- |
| 267.4 Å² | CCCCC/C=C\C/C=C\CCCCCCCCCCCC(=O)O[C@H](COC(=O)CCCCCCCCCCC)COP(=O)(O)OC[C@@H](O)CO [PG(34:2)] |

details: [M+H]+; instrument: TW; calibrated with phosphatidylcholines (ESI+) and phosphatidylethanolamines (ESI-)

| collision cross section (N2) | SMILES |
| --- | --- |
| 293.9 Å² | CCCCCCCCCCCCCCCC(=O)OC(COC(=O)CCCCCCCCCCCCCC)COP(=O)([O-])OCC(O)COC(=O)C(N)CCCC[NH3+] (centres undefined) [LysPG(31:0)] |

same assay, conditions: [M-H]-; instrument: TW; calibrated with phosphatidylcholines (ESI+) and phosphatidylethanolamines (ESI-)

| collision cross section (N2) | SMILES |
| --- | --- |
| 268.1 Å² | CCCCC/C=C\C/C=C\CCCCCCCCCCCC(=O)O[C@H](COC(=O)CCCCCCCCCCC)COP(=O)(O)OC[C@@H](O)CO [PG(34:2)] |

details: [M+H]+; instrument: DT; single field, calibrated with Agilent tune mix (Agilent)

| collision cross section (N2) | SMILES |
| --- | --- |
| 276.6 Å² | CCCCCCCCCCCCC=CC[C@@H](O)[C@H](COP(=O)([O-])OCC[N+](C)(C)C)NC(=O)CCCCCCCCCCCCC [SM(32:1)] |
| 283.3 Å² | CCCCC/C=C\C/C=C\CCCCCCCCCCCC(=O)O[C@H](COC(=O)CCCCCCCCCCC)COP(=O)(O)OC[C@@H](O)CO [PG(34:2)] |
| 276.8 Å² | CCCCCCCCCCCCCCCC(=O)OC[C@H](COP(=O)([O-])OCC[N+](C)(C)C)OC(=O)CCCCCCCCCCCCC [PC(30:0)] |

same assay, conditions: [M+NH4]+; instrument: DT; single field, calibrated with Agilent tune mix (Agilent)

| SMILES | collision cross section (N2) |
| --- | --- |
| CC/C=C\C/C=C\C/C=C\C/C=C\CCCCC(=O)OC[C@@H](COC(=O)CCCCCCCCCCCCCCCCC)OC(=O)CCCC/C=C\C/C=C\C/C=C\CCCCC [TG(54:7)] | 318 Å² |
| CCCCCCCCCC/C=C\CCCCCCCCCC(=O)OC[C@@H](COC(=O)CCCCCCCCCCCC)OC(=O)CCCCCCCCC/C=C\CCCCCCCCCC [TG(57:2)] | 334.6 Å² |
| CCCCC/C=C\C/C=C\CCCCCCCCCCCC(=O)O[C@H](COC(=O)CCCCCCCCCCC)COP(=O)(O)OC[C@@H](O)CO [PG(34:2)] | 284.9 Å² |
| CCCCCCCCCC/C=C\CCCCCCCCCC(=O)OC[C@@H](COC(=O)CCCCCCCCCCCCC)OC(=O)CCCCCCCCC/C=C\CCCCCCCCCC [TG(58:2)] | 337.8 Å² |

Further lines, results first:

| collision cross section (N2) | SMILES |
| --- | --- |
| 297.1 Å² | CCCCC/C=C\C/C=C\C/C=C\CCCCCCCCC(=O)OC[C@@H](COC(=O)CCCCCCCCCCC)OC(=O)CCCCCCCCCCC [TG(46:3)] |
| 310.5 Å² | CCCC/C=C\CCCCCCCC(=O)OC[C@H](COC(=O)CCCCCCCCCCCCCCCCCCCC)OC(=O)CCCCCCC/C=C\CCCC [TG(49:2)] |
| 317.6 Å² | CCCCC/C=C\C/C=C\C/C=C\C/C=C\CCCC(=O)OC[C@@H](COC(=O)CCCCCCCCCCCCC)OC(=O)CCCCCCCCCCCCCCCCC [TG(52:4)] |
| 332.9 Å² | CCCCC/C=C\C/C=C\CCCCCCCCCCCC(=O)OC[C@@H](COC(=O)CCCCCCCCCCCC)OC(=O)CCCCCCCCC/C=C\CCCCCCCCCC [TG(57:3)] |
| 309.5 Å² | CCCCC/C=C\C/C=C\C/C=C\C/C=C\CCCCCC(=O)OC[C@@H](COC(=O)CCCCCCCCCCCCC)OC(=O)CCCCCCCCCCCCC [TG(50:4)] |
| 319.5 Å² | CCCCC/C=C\C/C=C\C/C=C\C/C=C\CCCC(=O)OC[C@@H](COC(=O)CCCCCCCCCCCCCC)OC(=O)CCCCCCCCCCCCCCCCC [TG(53:4)] |
| 304.8 Å² | CCCCC/C=C\C/C=C\C/C=C\CCCCCCCCC(=O)OC[C@@H](COC(=O)CCCCCCCCCCCC)OC(=O)CCCCCCCCCCCC [TG(48:3)] |
| 340.7 Å² | CCCCC/C=C\C/C=C\CCCCCCCCCC(=O)O[C@H](COC(=O)CCCCCCC/C=C\CCCCCCCC)COC(=O)CCCCCCCCCCC/C=C\CCCCCCCC [TG(60:4)] |

same assay, conditions: [M-H]-; instrument: DT; single field, calibrated with Agilent tune mix (Agilent)

| collision cross section (N2) | SMILES |
| --- | --- |
| 268.7 Å² | CCCCC/C=C\C/C=C\CCCCCCCCCCCC(=O)O[C@H](COC(=O)CCCCCCCCCCC)COP(=O)(O)OC[C@@H](O)CO [PG(34:2)] |

details: [M+H]+; instrument: DT; single field

| collision cross section (N2) | SMILES |
| --- | --- |
| 275.46 Å² | CCCCCCCCCCCCC=CC[C@@H](O)[C@H](COP(=O)([O-])OCC[N+](C)(C)C)NC(=O)CCCCCCCCCCCCC [SM(32:1)] |
| 276.5 Å² and 277.83 Å² | CCCCCCCCCCCCCCCC(=O)OC[C@H](COP(=O)([O-])OCC[N+](C)(C)C)OC(=O)CCCCCCCCCCCCC [PC(30:0)] |

same assay, conditions: [M+NH4]+; instrument: DT; single field

| SMILES | collision cross section (N2) |
| --- | --- |
| CCCCCCCCCCCCCCCCCCCCC(=O)OC[C@@H](COC(=O)CCCCCCCCCCC)OC(=O)CCCCCCCCCCCCCCCCCCCC [TG(54:0)] | 331.43 Å² |
| CC/C=C\C/C=C\C/C=C\C/C=C\CCCCC(=O)OC[C@@H](COC(=O)CCCCCCCCCCCCCCCCC)OC(=O)CCCC/C=C\C/C=C\C/C=C\CCCCC [TG(54:7)] | 317.23 Å² and 320 Å² |
| CCCCCCCCCC/C=C\CCCCCCCCCC(=O)OC[C@@H](COC(=O)CCCCCCCCCCCC)OC(=O)CCCCCCCCC/C=C\CCCCCCCCCC [TG(57:2)] | 338.57 Å² and 340.8 Å² |
| CCCCCCCCC/C=C\CCCCCCCC(=O)OC[C@H](COC(=O)CCCCCCCCCCCCCCCCCCCCC)OC(=O)CCCCCCC/C=C\CCCCCCCCC [TG(60:2)] | 346.03 Å² |
| CC/C=C\C/C=C\C/C=C\C/C=C\C/C=C\CCCCCC(=O)O[C@@H](CO)COC(=O)CCCCCCCCCCCC [DG(35:5)] | 265.29 Å² and 266.85 Å² |
| CCCCCCCCCC/C=C\CCCCCCCCCC(=O)OC[C@@H](COC(=O)CCCCCCCCCCCCC)OC(=O)CCCCCCCCC/C=C\CCCCCCCCCC [TG(58:2)] | 341.17 Å² and 343.91 Å² and 338.53 Å² |

The next lines start with the values.

| collision cross section (N2) | SMILES |
| --- | --- |
| 297.58 Å² and 299.43 Å² | CCCCC/C=C\C/C=C\C/C=C\CCCCCCCCC(=O)OC[C@@H](COC(=O)CCCCCCCCCCC)OC(=O)CCCCCCCCCCC [TG(46:3)] |
| 296.47 Å² and 298.81 Å² and 298.68 Å² | CCCCCCCC/C=C\CCCCCCCC(=O)OC[C@@H](COC(=O)CCCCCCCCCCCC)OC(=O)CCCCCCCCCCCC [TG(44:1)] |
| 344.73 Å² and 347.66 Å² and 343.58 Å² | CCCCCC/C=C\CCCCCCCC(=O)OC[C@H](COC(=O)CCCCCCCCC/C=C\CCCCCCCCCC)OC(=O)CCCCCCCCC/C=C\CCCCCCCCCC [TG(60:3)] |
| 336.68 Å² and 339.26 Å² | CCCCC/C=C\C/C=C\CCCCCCCCCCCC(=O)OC[C@@H](COC(=O)CCCCCCCCCCCC)OC(=O)CCCCCCCCC/C=C\CCCCCCCCCC [TG(57:3)] |
| 307.56 Å² | CCCC/C=C\C/C=C\CCCCCCCC(=O)O[C@@H](COC(=O)CCCCCCCCC/C=C\C/C=C\CCCCC)COC(=O)CCCCCCCCCCC [TG(49:4)] |
| 312.57 Å² | CCCCC/C=C\C/C=C\CCCCCCCC(=O)OC[C@@H](COC(=O)CCCCCCC/C=C\CCCCC)OC(=O)CCCCCCC/C=C\C/C=C\CCCCC [TG(51:5)] |
| 321.8 Å² and 324.34 Å² and 326.13 Å² | CCCCC/C=C\C/C=C\C/C=C\C/C=C\CCCC(=O)OC[C@@H](COC(=O)CCCCCCCCCCCCC)OC(=O)CCCCCCCCCCCCCCCCCCC [TG(54:4)] |
| 334.57 Å² and 337.31 Å² | CCCCC/C=C\C/C=C\C/C=C\CCCCC(=O)O[C@H](COC(=O)CCCCCCC/C=C\CCCCCCC)COC(=O)CCCCCCCCCCCCCCCCCCCCC [TG(57:4)] |
| 333.74 Å² | CC/C=C\C/C=C\C/C=C\C/C=C\C/C=C\C/C=C\CCC(=O)OC[C@@H](COC(=O)CCCCCCCCCCCCCCC)OC(=O)CCCCCCCCCCCCCCCCCCC [TG(58:6)] |
| 318.08 Å² and 320.09 Å² and 324.43 Å² | CCCCC/C=C\C/C=C\C/C=C\C/C=C\CCCC(=O)OC[C@@H](COC(=O)CCCCCCCCCCCCCC)OC(=O)CCCCCCCCCCCCCCCCC [TG(53:4)] |
| 304.89 Å² and 307.09 Å² | CCCCC/C=C\C/C=C\C/C=C\CCCCCCCCC(=O)OC[C@@H](COC(=O)CCCCCCCCCCCC)OC(=O)CCCCCCCCCCCC [TG(48:3)] |
| 342.69 Å² and 347.03 Å² | CCCCC/C=C\C/C=C\CCCCCCCCCC(=O)O[C@H](COC(=O)CCCCCCC/C=C\CCCCCCCC)COC(=O)CCCCCCCCCCC/C=C\CCCCCCCC [TG(60:4)] |

same assay, conditions: [M+Na]+; instrument: DT; single field

| SMILES | collision cross section (N2) |
| --- | --- |
| CC/C=C\C/C=C\C/C=C\C/C=C\CCCCC(=O)OC[C@@H](COC(=O)CCCCCCCCCCCCCCCCC)OC(=O)CCCC/C=C\C/C=C\C/C=C\CCCCC [TG(54:7)] | 316.19 Å² |
| CCCCCCCCCCCCCCCCCCCCCC(=O)OC[C@@H](COC(=O)CCCCCCCCCCC)OC(=O)CCCCCCCCCCC [TG(46:0)] | 302.69 Å² and 303.56 Å² |
| CCCCCCCCCCCCCCCCCCC(=O)OC[C@@H](COC(=O)CCCCCCCCCCC)OC(=O)CCCCCCCCCCCCCCCCCC [TG(50:0)] | 316.28 Å² |

Continued, values first:

| collision cross section (N2) | SMILES |
| --- | --- |
| 297 Å² and 298.89 Å² | CCCCC/C=C\C/C=C\C/C=C\CCCCCCCCC(=O)OC[C@@H](COC(=O)CCCCCCCCCCC)OC(=O)CCCCCCCCCCC [TG(46:3)] |
| 309.35 Å² and 311.09 Å² | CCCC/C=C\CCCCCCCC(=O)OC[C@H](COC(=O)CCCCCCCCCCCCCCCCCCCC)OC(=O)CCCCCCC/C=C\CCCC [TG(49:2)] |
| 295.37 Å² and 297.74 Å² | CCCCCCCC/C=C\CCCCCCCC(=O)OC[C@@H](COC(=O)CCCCCCCCCCCC)OC(=O)CCCCCCCCCCCC [TG(44:1)] |
| 314.5 Å² and 316.78 Å² | CCCCC/C=C\C/C=C\C/C=C\C/C=C\CCCC(=O)OC[C@@H](COC(=O)CCCCCCCCCCCCC)OC(=O)CCCCCCCCCCCCCCCCC [TG(52:4)] |
| 308.43 Å² and 310.33 Å² and 312.33 Å² | CCCCC/C=C\C/C=C\C/C=C\C/C=C\CCCCCC(=O)OC[C@@H](COC(=O)CCCCCCCCCCCCC)OC(=O)CCCCCCCCCCCCC [TG(50:4)] |
| 320.63 Å² and 322.94 Å² | CCCCC/C=C\C/C=C\C/C=C\C/C=C\CCCC(=O)OC[C@@H](COC(=O)CCCCCCCCCCCCC)OC(=O)CCCCCCCCCCCCCCCCCCC [TG(54:4)] |
| 327.06 Å² and 327.86 Å² | CCCC/C=C\C/C=C\CCCCCCCC(=O)OC[C@H](COC(=O)CCCCCCCCC/C=C\CCCCCCCCCC)OC(=O)CCCCCCC/C=C\C/C=C\CCCC [TG(56:5)] |
| 319.25 Å² and 320.86 Å² and 321.71 Å² | CCCCCCCC/C=C\CCCCCCCCCC(=O)OC[C@@H](COC(=O)CCCCCCCCCCC)OC(=O)CCCCCCCCC/C=C\CCCCCCCC [TG(52:2)] |
| 319.39 Å² | CCCCC/C=C\C/C=C\C/C=C\C/C=C\CCCC(=O)OC[C@@H](COC(=O)CCCCCCCCCCCCCC)OC(=O)CCCCCCCCCCCCCCCCC [TG(53:4)] |
| 308.34 Å² and 309.51 Å² | CCCCC/C=C\C/C=C\C/C=C\C/C=C\CCCC(=O)OC[C@@H](COC(=O)CCCCCCCCCCC)OC(=O)CCCCCCC/C=C\CCCCCCCC [TG(50:5)] |
| 304.27 Å² and 306.32 Å² | CCCCC/C=C\C/C=C\C/C=C\CCCCCCCCC(=O)OC[C@@H](COC(=O)CCCCCCCCCCCC)OC(=O)CCCCCCCCCCCC [TG(48:3)] |
